Measured values published in patent US20060035867A1, “Methods of treating cancer and the pain associated therewith using endothelin antagonists” (priority 2000, published 2006).

Tests used:
[1] = test system: male subjects with hormone refractory prostate cancer; assay: Bone scan (Tc-99m phosphonate, bone scan index); assay type: in vivo, human; settings: 10 mg ABT-627 versus placebo, FIG. 6
Description: (§1) Studies were performed on male subjects with asymptomatic hormone refractory prostate cancer with rising PSA levels and on male subjects with symptomatic hormone refractory prostate cancer with rising PSA levels and pain. Subjects in the phase II studies had castrate levels of testosterone, either due to pharmacologic intervention, via leuprolide (Lupron®) or goserelin (Zoladex®), or via surgical castration. Subjects received ABT-627 or placebo. The following tests were conducted:
Bone scans were performed with an NDA approved, Tc-99m phosphonate type radiopharmaceutical. […] Each site was evaluated against a confidence score of 1 to 5, where 1 is negative, 2 is probably negative, 3 is equivocal, 4 is probably positive, and 5 is definitely positive. […] In addition, in a blinded study, a reference nuclear medicine physician interpreted the bone scans quantitatively as follows: the percent of involved bone was estimated for each individual bone, and the individual bone involvement was summed to calculate a global percent bone scan index (BSI). […]
Bone scans were conducted on each subject on day one of the study, and on the final day of the study, and the changes from baseline in bone scan index scores were analysed by mean change and mean percent change, adjusting for baseline characteristics as co-variates using SAS version XXX software.

[2] = test system: Crosslinked N-telopeptide (ICTP) of type I collagen; assay: Crosslinked N-Telopeptide Levels (DiaSorin ICTP radioimmunoassay); assay type: in vivo; settings: hormone refractory prostate cancer subjects; 10 mg ABT-627 vs placebo; human serum; AUC in FIG. 4
Description: as §1
(§2) Markers of osteoblastic activity were assessed using urine samples. Bone markers include bone alkaline phosphatase (BAP), deoxypridinoline, and N-telopeptide of Type I collagen. Blood samples were collected prior to dosing on Day 1, Day 42, Day 84, Day 168, and every 28 days after Day 168, with a final collection on the last day of the study.
Cross-linked N-telopeptide levels were determined using the DiaSorin (Stillwater, Minn.) assay for the quantitative determination of carboxyterminal cross-linked telopeptide of type I collagen (ICTP) in human serum by equilibrium radioimmunoassay (RIA). Briefly, samples were incubated with the ^125I ICTP tracer and ICTP primary antibody for 2 hours at 37° C. Following the 2 hour incubation, a pre-precipitated second antibody complex was added to separate the bound from free tracer. […] The bound tracer in the pellet was counted with a gamma counter. […]

[3] = test system: male subjects with symptomatic hormone refractory prostate cancer with rising PSA levels and pain; assay: Visual Analog Scale (VAS) pain assessment; assay type: in vivo, human; settings: 2.5 mg or 10 mg ABT-627 vs placebo, independent of the effects of morphine, AUC in FIG. 3
Description: as §1, with “conducted: […]” for “conducted:”
During the course of the study, pain asessments were done daily, at bedtime, by the subject. […] The log also contained a table on which was recorded all daily pain medication consumed by the patient. […] Clinical personnel who received the logs measured the score by measuring the distance (in mm) from the “no pain” end mark to the point where the subject's line crossed the VAS line. […]
The weekly VAS scores were calculated excluding the lowest and highest score for each week and averaging the remaining five scores. […]
Weekly VAS scores are examined using a longitudinal analysis method to explore trends over time. The duration of the response, defined as the time from baseline to the last weekly assessment for which the responder definition was satisfied, was analyzed using the Kaplan-Meier methodology and logrank test.

Interleukin-6 = Interleukin-6 Levels (sandwich immunoassay, serum of treated subjects); assay type: in vivo, human; settings: hormone refractory prostate cancer subjects, 2.5 mg or 10 mg ABT-627 vs placebo, AUC FIG. 1
Description: as §1
(§3) A number of recognized or putative biochemical markers of disease progression have been used to monitor treatment of individuals with prostate cancer. Among these markers are serum Prostate Specific Antigen (PSA), serum acid Phosphatase, Interleukin-6, and Chromagranin-A. As currently accepted, favorable treatment is marked by a decrease or slower rate of increase for PSA, acid phosphatase, and Interleukin-6, while a favorable response is marked by an increase in Chromagranin-A. […]
The effect of ABT-627 adminstration on Interleukin-6 levels in human serum samples was determined at Quintiles Laboratories using a sandwich immunoassay. […] After incubation, the wells were washed, and the bound enzymatic activity was measured using a chromogenic substrate. […]

[4] = test system: bone alkaline phosphatase (BAP); assay: Bone Alkaline Phosphatase levels (Alkphase-B assay); assay type: in vivo, human; settings: hormone refractory prostate cancer subjects; 10 mg ABT-627 vs placebo; AUC in FIG. 5
Description: as §1, §2
Bone Alkaline Phosphatase levels were determined using the bone-specific Alkphase-B® assay published by Metra Biosystems (Mountain View, Calif.).

Chromagranin-A = Chromagranin-A Levels (two site chemiluminescence assay, serum of treated subjects); assay type: in vivo, human; settings: hormone refractory prostate cancer subjects, 2.5 mg/day of ABT-627, AUC in FIG. 8
Description: as §1, §3
The effect of ABT-627 adminstration on Chromagranin-A levels in human serum samples was determined by proprietary assay conducted at the Nichols Institute. […] The bound, acridinium-labeled material produces light that is detected in a luminometer after addition of triggering agents. […]

Acid Phosphatase (ACP) = assay: Acid Phosphatase Levels (Sigma Diagnostics ACP Procedure No. 435, serum of treated subjects); assay type: in vivo, human; settings: hormone refractory prostate cancer subjects, ABT-627 vs placebo, AUC in FIG. 7 (10 mg)
Description: as §1
A number of recognized or putative biochemical markers of disease progression have been used to monitor treatment of individuals with prostate cancer. […]
The effect of ABT-627 administeration on Acid Phosphatase levels in human subject serum samples was determined at Quintiles Laboratories using the chemical test described in Sigma Diagnostics Acid Phosphatase (ACP) Procedure No. 435. […] The alpha-naphthol immediately reacts with fast red TR salt to produce a yellow chromophore with an absorbance maximum at 405 nm. The rate of increase in absorbance at 405 nm is directly proportional to ACP activity in the sample. ACP activity was determined in the presence and absence of L-tartrate, the difference being attributed to prostatic acid phosphatase activity. […]

[5] = test system: prostate specific antigen (PSA); assay: Prostate Specific Antigen Level Assay (Chiron ACS: Centaur PSA2, serum of treated subjects); assay type: in vivo, human; settings: hormone refractory prostate cancer subjects; 2.5 mg or 10 mg ABT-627 vs placebo; AUC in FIG. 2
Description: as §1, §3
The effect of ABT-627 administeration on prostate specific antigen (PSA) levels in human subject serum samples was determined using the procedure described in the Chiron Diagnostics ACS: Centaur PSA2 Assay. […]
Briefly, a subject population was treated with a placebo or 2.5 mg or 10 mg of ABT-627. […] A direct relationship exists between the amount of PSA present in the patient sample and the RLU's (relative light units) detected.

## CCCCN(CCCC)C(=O)CN1C[C@H](c2ccc3c(c2)OCO3)[C@@H](C(=O)O)[C@@H]1c1ccc(OC)cc1 [ABT-627]
[1]
  proportion of total skeletal involvement (bone scan): decrease in the proportion of total skeketal involvement
[2]
  Crosslinked N-telopeptide levels: decreased
[3]
  VAS scores (pain): decrease in pain
Interleukin-6
  average change in baseline for Interleukin-6: lower
[4]
  BAP levels: decreased
Chromagranin-A
  average change from baseline for Chromagranin-A: higher
Acid Phosphatase (ACP)
  average change from baseline for acid phosphatase: decreased
  rate of increase for acid phosphatase: decreased
[5]
  rate of increase of PSA in the serum samples: decreases
